Laboratory results from patent publication US20130310412A1, “Combinations of an Opioid/TLR4 Antagonist and a Direct-Acting Alpha-2 Adrenergic Agonist for Use in the Treatment of Pain” (priority 2010, published 2013).
Read-outs that look alike come from different tables or passages of the source.

Tests used:
[1] = target: Toll-like receptor 4 (TLR4) (Homo sapiens, UniProt O00206+Q9Y6Y9); details: cited from earlier work
neuropathic pain = details: animal models; cited from earlier work
opioid receptors = details: cited from earlier work
neuropathic back pain = test: Naltrexone and clonidine alone and in combination in a human subject: pain treatment effect, weight to weight synergy; type: in vivo; details: one hour post-dose, naltrexone 4.5 mg alone, clonidine 0.3 mg alone, combinations with naltrexone 2.25 mg
Protocol: (§1) Naltrexone and clonidine were evaluated alone and in combination on a human subject with the purpose of finding whether or not a combination of the two compounds offers synergistic advantage. Two aspects were evaluated for synergy: one aspect was pain treatment effect comparing the amounts used weight to weight, and the other aspect was an assessment of synergy of side effects.
(§2) The components of the combination were administered to a subject in the following manner: naltrexone 4.5 mg was given in the morning. The clonidine dose was divided into two doses, a dose of 0.1 mg in the morning and a dose of 0.2 mg at bedtime. […] The pain treatment effect of naltrexone and clonidine was evaluated after one hour post-dose.
To determine synergy, the amounts of naltrexone and clonidine administered alone were compared to the combination combined amounts.

trigeminal neuralgia = test: Case study trigeminal neuralgia, open label, pain intensity scores and percent relief (baseline days 1-6, study drug days 7-30); type: in vivo, human; details: from pain level 9
From the text: Trigeminal neuralgia, also known as suicide disease, is a neuropathic disorder characterized by episodes of intense pain in the face, originating from the trigeminal nerve. It has been described as among the most painful conditions known to mankind. This case study is of a person with a three month history of trigeminal neuralgia. […] The pain involved the right check, upper jaw and the upper front teeth. The pain was constant and described as burning, stinging and aching. It was aggravated by eating, brushing teeth, flossing, chewing and talking. The subject's pain level on average was 5, but it would peak to 9. Ibuprofen brought the pain level from 9 to 7 for two hours, vicoden brought their pain level from 9 to 5, but relief lasted only three to four hours. The subject entered open label study for 3 weeks. […].

[2] = cited from earlier work
[3] = Naltrexone and clonidine alone and in combination in a human subject: side effects over 24 hours; details: naltrexone 4.5 mg alone, clonidine 0.3 mg alone, combinations with naltrexone 2.25 mg
Protocol: as §1, §2

[4] = full dose; cited from earlier work
[5] = 0.5 mg, 42 IBS patients; cited from earlier work
leg pain = test: Case study leg pain caused by L-5 radiculopathy; type: in vivo, human

Toll-like receptor 4 (TLR4), sequence (O00206 24-839, species assumed): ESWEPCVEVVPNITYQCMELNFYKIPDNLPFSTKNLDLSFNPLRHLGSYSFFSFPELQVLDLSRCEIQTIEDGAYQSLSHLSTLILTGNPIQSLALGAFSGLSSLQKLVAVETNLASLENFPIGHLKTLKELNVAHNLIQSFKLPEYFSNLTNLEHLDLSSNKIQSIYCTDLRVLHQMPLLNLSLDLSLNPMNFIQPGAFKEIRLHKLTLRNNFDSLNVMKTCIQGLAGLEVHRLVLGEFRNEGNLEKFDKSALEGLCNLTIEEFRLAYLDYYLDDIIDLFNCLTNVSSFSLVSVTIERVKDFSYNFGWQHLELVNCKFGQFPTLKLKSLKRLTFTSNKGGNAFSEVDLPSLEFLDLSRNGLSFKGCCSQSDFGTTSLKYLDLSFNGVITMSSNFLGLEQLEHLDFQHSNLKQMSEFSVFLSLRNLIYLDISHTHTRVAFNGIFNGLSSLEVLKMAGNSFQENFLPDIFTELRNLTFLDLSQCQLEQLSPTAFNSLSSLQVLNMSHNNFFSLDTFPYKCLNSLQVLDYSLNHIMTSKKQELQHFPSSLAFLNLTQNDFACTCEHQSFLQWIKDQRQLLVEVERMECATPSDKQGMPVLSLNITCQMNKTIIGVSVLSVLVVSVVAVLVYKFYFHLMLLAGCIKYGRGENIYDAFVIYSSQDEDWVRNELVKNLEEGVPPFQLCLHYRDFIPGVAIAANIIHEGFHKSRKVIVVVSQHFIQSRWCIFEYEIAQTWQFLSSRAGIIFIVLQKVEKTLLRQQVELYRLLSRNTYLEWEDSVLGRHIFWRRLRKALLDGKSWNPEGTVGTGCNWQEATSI
Toll-like receptor 4 (TLR4), sequence (Q9Y6Y9 17-160 limits assumed, species assumed): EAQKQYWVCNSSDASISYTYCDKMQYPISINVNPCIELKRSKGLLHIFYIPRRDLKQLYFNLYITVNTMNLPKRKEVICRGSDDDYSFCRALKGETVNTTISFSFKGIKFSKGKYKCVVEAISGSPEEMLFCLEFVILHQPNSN

C=CCN1CC[C@]23c4c5ccc(O)c4O[C@H]2C(=O)CC[C@]3(O)[C@H]1C5 [(+)-naloxone]
action at TLR4 [1]: selective antagonists of TLR4
treating symptoms of neuropathic pain (neuropathic pain): effective

O=C1CC[C@]2(O)[C@@H]3Cc4ccc(O)c5c4[C@]2(CCN3CC2CC2)[C@@H]1O5 [(+)-naltrexone]
affinity for opioid receptors (opioid receptors): lack affinity
action at TLR4 [1]: selective antagonists of TLR4
treating symptoms of neuropathic pain (neuropathic pain): effective

Clc1cccc(Cl)c1N=C1NCCN1 [Clonidine, clonidine]
% reversal of pain (neuropathic back pain): 50%

CC(C)Cc1ccc(C(C)C(=O)O)cc1 (centres unmarked) [Ibuprofen]
pain level with previous medication (trigeminal neuralgia): 7

O=C1CC[C@@]2(O)[C@H]3Cc4ccc(O)c5c4[C@@]2(CCN3CC2CC2)[C@H]1O5 [Naltrexone, naltrexone]
Anxiety frequency ([2]; 2.5 mg daily): 11.9%
Diarrhea frequency ([2]; 2.5 mg daily): 6.0%
Muscle pain frequency ([2]; 2.5 mg daily): 4.5%
Anxiety frequency ([2]; 5.0 mg daily): 21.7%
Diarrhea frequency ([2]; 5.0 mg daily): 13.0%
Muscle pain frequency ([2]; 5.0 mg daily): 15.2%
side effects that were short-lived ([2]; 24 patients, of those with side effects): 32.4%
Abdominal pain, Percentage of Participants ([2]; 121 patients): 11.6%
Anorexia, Percentage of Participants ([2]; 121 patients): 8.3%
Anxiety, Percentage of Participants ([2]; 121 patients): 15.7%
Diarrhea, Percentage of Participants ([2]; 121 patients): 8.3%
Dizziness, Percentage of Participants ([2]; 121 patients): 10.7%
Drowsiness, Percentage of Participants ([2]; 121 patients): 11.6%
Headache, Percentage of Participants ([2]; 121 patients): 11.6%
Insomnia, Percentage of Participants ([2]; 121 patients): 8.3%
Mood change, Percentage of Participants ([2]; 121 patients): 3.3%
Muscle pain, Percentage of Participants ([2]; 121 patients): 8.3%
Nausea, Percentage of Participants ([2]; 121 patients): 12.4%
No side effects, Percentage of Participants ([2]; 121 patients): 38.8%
Terminated Naltrexone because of side effects ([2]; 121 patients): 16.5%
Trouble concentrating, Percentage of Participants ([2]; 121 patients): 1.7%
Vivid dreams, Percentage of Participants ([2]; 121 patients): 5.0%
Total side effects, Percentage of Participants ([2]; 121 patients, listed as LDN): 61%
Total side effects, Percentage of Participants ([2]; 121 patients, listed as Low Dose Naltrexone): 61.2%
Total side effects, Percentage of Participants ([2]; 121 patients, listed as low dose Naltrexone): 61/2
incidence of nervousness, insomnia, and anxiety ([2]; low dose): double digit incidence
action at TLR4 [1]: antagonists for TLR4
side effects [3]: high incidence of alertness, insomnia and anxiety
incidence of nervousness, insomnia, and anxiety [4]: single-digit incidence
% reversal of pain (neuropathic back pain): 100%
side effects [5]: no side effects were reported

CN1CC[C@]23c4c5ccc(O)c4O[C@H]2[C@@H](O)C=C[C@H]3[C@H]1C5 [morphine]
action at TLR4 [1]: TLR4 agonists

C=CCN1CC[C@]23c4c5ccc(O)c4O[C@H]2C(=O)CC[C@@]3(O)[C@H]1C5 [naloxone]
action at TLR4 [1]: antagonists for TLR4

Etanercept
duration of relief from previous treatment (leg pain; three perispinal injections): two
relief from previous treatment (leg pain; three perispinal injections): 10%

botulinum toxin
duration of relief from previous treatment (leg pain; in vivo): two
relief from previous treatment (leg pain; in vivo): 10%
